These results are taken from patent publication US7419960B2, “Hemiterpene glycosides with anti-platelet aggregation activities from Ilex pubescens” (Hong Kong Baptist University, priority 2005, dated 2008).

Each structure is given as a SMILES string. Marks after values point to notes of the source that are not given here.

The test system of the test is platelet-rich-plasma (PRP). In words: Shear-induced platelet aggregation (SIPA) in platelet-rich-plasma, determined by turbidity. In kind it is cell-based, Sprague-Dawley rats. The note with it: 10 μM; for Platelet aggregation rate (%) ( X ± SD): n=10, rat PRP, shear stress 15 Pa for 360 seconds, 37° C., PPP = 100%, pre-shear PRP = 0% aggregation, Control 54.400 ± 8.592; for anti-platelet aggregation activity compared with salvianolic acid B and aspirin: high shear stress-induced platelet activation and aggregation test. As for the experimental part: Preparation of platelet-rich-plasma (PRP): Sprague-Dawley rats (350-450 g) were used as blood donors to collect anticoagulated blood. Collected blood samples were immediately transferred into a plastic tube anticoagulant ( 1/10 volume of 3.8% trisodium citrate, pH 7.4). The platelet-rich-plasma (PRP) was then prepared by centrifuging the blood at 300 rpm for 15 minutes. The platelet concentration was adjusted to a level of 5×10^5/μl by addition of homologous platelet-poor-plasma (PPP) obtained after further centrifugation of blood at 1500 rpm for 15 minutes. For getting sufficient amount of PRP, at least two rats have to be sacrificed each time to obtain a pooled PRP sample.
Shear-induced platelet aggregation (SIPA): Adjusted PRP was divided into different groups according to the experimental protocol, mixed with 10 μM of pubescenosides A, B, aspirin and Salvianolic acid B. HAAke Rheometer RS 600 (Thermo Haake Corp., Ltd., Germany) with sensor C60/0.5° was employed as shear generator. The rheometer has the benefit of controlling shear stress and with an accuracy of 1 μm by the automatic adjustment of the gap between cone and plate. The shear program for PRP is: preheating sample at 37° C., increasing stress level from 0 to 15 Pa in the duration of 30 seconds, and then maintaining the stress level at 15 Pa for 360 seconds. After shearing, PRP was transferred to a platelet aggregometer (Chrono-Log aggregometer, Model 560 CA, Chrono-Log Corp., U.S.A) and SIPA was determined by turbidity. Since platelet-poor-plasma (PPP) and the pre-shear PRP were used as the turbidity scales of 100% and 0% aggregation, respectively, the aggregative degree of post-shear PRP could be measured.

Turning to `C=C(COC(=O)/C=C/c1ccc(O)c(O)c1)C(O)CO[C@@H]1O[C@H](CO)[C@@H](O)[C@H](O)[C@H]1O` (stereo partly drawn) [Pubescenoside A, 4-caffeoyloxy-2-hydroxy-3-methylene-butane-1-O-β-D-glucopyranoside], the “Platelet aggregation rate (%) ( X ± SD)” value was 36.550 ± 7.697*^▪▴ %; the “anti-platelet aggregation activity compared with salvianolic acid B and aspirin” value is recorded as “much stronger”.
Regarding `CC(=O)Oc1ccccc1C(=O)O` [Aspirin, aspirin, reference compound], the “Platelet aggregation rate (%) ( X ± SD)” value is 44.700 ± 4.668 %.
For `C=C(CO)C(CO[C@@H]1OC(CO)[C@@H](O)C(O)C1O)OC(=O)/C=C/c1ccc(O)c(O)c1` (stereo partly drawn) [Pubescenoside B, 4-hydroxy-2-caffeoyloxy-3-methylene-butane-1-O-β-D-glucopyranoside], the “Platelet aggregation rate (%) ( X ± SD)” value is on record as 27.300 ± 10.263*^□ %; the “anti-platelet aggregation activity compared with salvianolic acid B and aspirin” value was “much stronger”.
In the case of `O=C(/C=C/c1ccc(O)c2c1[C@H](C(=O)O[C@H](Cc1ccc(O)c(O)c1)C(=O)O)[C@@H](c1ccc(O)c(O)c1)O2)O[C@H](Cc1ccc(O)c(O)c1)C(=O)O` [Salvianolic acid B, salvianolic acid B, reference compound], the “Platelet aggregation rate (%) ( X ± SD)” value was 39.650 ± 8.577 %.
